Data reported in US5624952A, “[(Benzodioxan, benzofuran or benzopyran) alkylamino] alkyl substituted guanidines” (Janssen Pharmaceutica N.V., priority 1993, dated 1997).
Structures can show the parent of a compound that is named as a salt.

Each compound was assayed on basilar arteries of pigs (assay: Constriction of isolated basilar artery segments of pigs in organ baths (serotonin-like response)). Settings: Sus scrofa; pig basilar artery segments, 37° C., Krebs-Henseleit; relative to serotonin 3×10^-7 M; estimated from three different preparations; read-out: ED50 (molar concentration at which a test compound causes 50% of the constrictive response obtained with serotonin).
Method: Segments of basilar aeries taken from pigs (anaesthetised with sodium pentobarbital) were mounted for recording of isometric tension in organ baths. The preparations were bathed in Krebs--Henseleit solution. The solution was kept at 37° C. and gassed with a mixture of 95% O2 -5% CO2. The Preparations were stretched until a stable basal tension of 2 grams was obtained.
The preparations were made to constrict with serotonin (3×10^-7 M). The response to the addition of serotonin was measured and subsequently the serotonin was washed away.
This Procedure was repeated until stable responses were obtained.
Subsequently the test compound was administered to the organ bath and the constriction of the Preparation was measured. This constrictive response is expressed as a Percentage of the response to serotonin as measured Previously.
The ED50 -value (molar concentration) is defined as the concentration at which a test compound causes 50% of the constrictive response obtained with serotonin. Said
ED50 -values are estimated from experiments on three different preparations.

| SMILES | EC50 [µM] |
| --- | --- |
| CC(C)(C)c1ccc2c(c1)OC(CNCCCNC1=NCCCN1)CC2 (centres unmarked) [Compound 89] | 0.0794 |
| CCNC(=N)NCCNCC1CCc2ccccc2O1 (centres unmarked) [Compound 148] | 0.495 |
| CCc1ccc2c(c1)OC(CNCCCCCNC1=NCCCN1)CC2 (centres unmarked) [Compound 82] | 0.0176 |
| c1cnc(NCCCCNCC2CCc3ccccc3O2)nc1 (centres unmarked) [Compound 48] | 0.306 |
| Fc1ccc2c(c1)CCC(CNCCCCCCNC1=NCCCN1)O2 (centres unmarked) [Compound 68] | 0.0333 |
| c1cnc(NCCCNC[C@@H]2CCc3ccccc3O2)nc1 [Compound 5] | 0.515 |
| Fc1ccc2c(c1)CC[C@H](CNCCNc1ncccn1)O2 [Compound 46, (-)-(R)-N-[(6-fluoro-3,4-dihydro-2H-1-benzopyran-2yl)methyl]-N'-(2-pyrimidinyl)-1,2-ethanediamine] | 1 |
| CCCCc1ccc2c(c1)OC(CNCCCNC1=NCCCN1)CC2 (centres unmarked) [Compound 87] | 0.0887 |
| NC(=O)c1ccnc(NCCCNCC2CCc3ccccc3O2)n1 (centres unmarked) [Compound 114] | 0.0956 |
| Fc1ccc2c(c1)CCC(CNCCCNc1ncccn1)O2 (centres unmarked) [Compound 3] | 0.146 |
| CCc1ccc2c(c1)OC(CNCCCNC(=N)N(C)C)CC2 (centres unmarked) [Compound 153] | 0.0218 |
| Fc1ccc2c(c1)CC[C@H](CNCCCNc1ncccn1)O2 [Compound 13] | 0.0422 |
| CN(C)C(=N)NCCCNCC1CCc2ccccc2O1 (centres unmarked) [Compound 151] | 0.0271 |
| c1ccc2c(c1)CC[C@H](CN1CCC(NC3=NCCCN3)CC1)O2 [Compound 139] | 0.15 |
| CCc1ccc2c(c1)OC(CNCCCNC1=NCCCCN1)CC2 (centres unmarked) [Compound 116] | 0.0682 |
| CCc1ccc2c(c1)OC(CNCCCCNc1ncccn1)CC2 (centres unmarked) [Compound 18] | 0.049 |
| c1ccc2c(c1)CCC(CN1CCC(NC3=NCCCN3)CC1)O2 (centres unmarked) [Compound 136] | 0.81 |
| CCCNC(=N)NCCCNCC1CCc2ccccc2O1 (centres unmarked) [Compound 149] | 0.0992 |
| Cc1ccc2c(c1)OC(CNCCCNC(=N)N(C)C)CC2 (centres unmarked) [Compound 152] | 0.056 |
| N#Cc1ccnc(NCCCNCC2CCc3ccccc3O2)n1 (centres unmarked) [Compound 113] | 0.0163 |
| CC(C)NC(=N)NCCCNCC1CCc2ccccc2O1 (racemic) [Compound 150, (±)-N-[3-[[(3,4-dihydro-2H-1-benzopyran-2-yl)methyl]amino]propyl]-N'-(1-methylethyl)-guanidine dihydrochloride] | 0.0469 |
| CCCc1ccc2c(c1)OC(CNCCCNC1=NCCCN1)CC2 (centres unmarked) [Compound 88] | 0.00702 |

Continued, values first:

| EC50 [µM] | SMILES |
| --- | --- |
| 0.0234 | Fc1ccc2c(c1)OC(CNCCCNC1=NCCCN1)CC2 (centres unmarked) [Compound 72] |
| 0.0422 | c1ccc2c(c1)CC[C@H](CNCCCCNC1=NCCCN1)O2 [Compound 99] |
| 0.0976 | c1ccc2c(c1)CCC(CNCCCCNC1=NCCCN1)O2 (centres unmarked) [Compound 97] |
| 0.0336 | c1ccc2c(c1)CCC(CNCCCNC1=NCCN1)O2 (centres unmarked) [Compound 130] |
| 0.121 | Fc1ccc2c(c1)CCC(CNCCCNC1=NCCCN1)O2 (centres unmarked) [Compound 63] |
| 0.0527 | CCc1ccc2c(c1)OC(CNCCCNC1=NCCN1)CC2 (centres unmarked) [Compound 133] |
| 0.187 | Brc1ccc2c(c1)CCC(CNCCCNC1=NCCCN1)O2 (racemic) [Compound 56, (±)-N-[(6-bromo-3,4-dihydro-2H-1-benzopyran-2-yl)methyl]-N'-(1,4,5,6-tetrahydro-2-pyrimidinyl)-1,3-propanediamine ethanedioate(1:2)] |
| 0.656 | c1ccc2c(c1)CC(CNCCCNC1=NCCCN1)O2 (centres unmarked) [Compound 66] |
| 0.0897 | c1ccc2c(c1)OCC(CNCCCNC1=NCCCN1)O2 (centres unmarked) [Compound 64] |
| 0.00346 | CCc1ccc2c(c1)OC(CNCCCNC1=NCCCN1)CC2 (centres unmarked) [Compound 73] |
| 0.039 | Fc1ccc2c(c1)CCC(CNCCCNC1=NCCN1)O2 (centres unmarked) [Compound 106] |
| 0.0342 | c1ccc2c(c1)CCC(CNCCCCCNC1=NCCCN1)O2 (centres unmarked) [Compound 98] |
| 0.00919 | COc1cccc2c1OC(CNCCCNC1=NCCCN1)CC2 (centres unmarked) [Compound 76] |
| 0.0317 | c1ccc2c(c1)CC[C@H](CNCCCNC1=NCCCN1)O2 [Compound 62, (-)-(R)-N-[(3,4-dihydro-2H-1-benzopyran-2-yl)methyl]-N'-(1,4,5,6-tetrahydro-2-pyrimidinyl)-1,3-propanediamine dihydrochloride hemihydrate] |
| 0.0167 | c1ccc2c(c1)CCC(CNCCCNC1=NCCCCN1)O2 (centres unmarked) [Compound 111] |
| 0.0451 | c1ccc2c(c1)CCC(CNCCCNc1nccnn1)O2 (centres unmarked) [Compound 115] |
| 0.0177 | Cc1ccc2c(c1)OC(CNCCCNC1=NCCCN1)CC2 (centres unmarked) [Compound 67] |
| 0.00637 | Fc1ccc2c(c1)CC[C@H](CNCCCNC1=NCCCN1)O2 [Compound 70] |
| 0.444 | c1ccc2c(c1)CCC(CNCCNC1=NCCN1)O2 (centres unmarked) [Compound 129] |
| 0.0817 | c1ccc2c(c1)CCC(CNCCCNC1=NCCCN1)O2 (racemic) [Compound 95, (±)-N-[(3,4-dihydro-2H-1-benzopyran-2-yl)methyl]-N'-(1,4,5,6-tetrahydro-2-pyrimidinyl)-1,3-propanediamine dihydrochloride] |
| 0.0416 | CC(C)c1ccc2c(c1)OC(CNCCCNC1=NCCCN1)CC2 (centres unmarked) [Compound 86] |
| 0.0354 | COc1ccc2c(c1)OC(CNCCCNC1=NCCCN1)CC2 (centres unmarked) [Compound 78] |
| 0.221 | c1ccc2c(c1)CC[C@@H](CNCCCNC1=NCCCN1)O2 [Compound 65] |
| 0.0133 | Cc1cccc2c1OC(CNCCCNC1=NCCCN1)CC2 (centres unmarked) [Compound 84] |
| 0.542 | c1ccc2c(c1)CCC(CNCCNC1=NCCCN1)O2 (centres unmarked) [Compound 57] |
